In experiment [1] the target is T1, human recombinant histamine H2 receptor (Homo sapiens, UniProt P25021).
T1 construct: expressed in transfected cells; host or cells: CHO-K1 cells
In words: Histamine H2 radioligand binding ([125I]Aminopotentidine). As to conditions: 1 μM; inhibition of specific [125I]Aminopotentidine binding; read-out: Binding data (Percentage Inhibition) Histamine Binding (1 μM) H2. In short, it runs like this:
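Membranes of CHO-K1 cells expressing human H2 receptor incubated with 0.1 nM [125I]aminopotentidine, 120 min, 25 °C, 50 mM phosphate pH 7.4; nonspecific binding defined with 3 μM tiotidine.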

Experiment [2] deals with T2, human recombinant adrenergic α2B receptor (Homo sapiens, UniProt P18089).
T2 construct: expressed in transfected cells; host or cells: CHO-K1 cells
T2 sequence (P18089 1-450): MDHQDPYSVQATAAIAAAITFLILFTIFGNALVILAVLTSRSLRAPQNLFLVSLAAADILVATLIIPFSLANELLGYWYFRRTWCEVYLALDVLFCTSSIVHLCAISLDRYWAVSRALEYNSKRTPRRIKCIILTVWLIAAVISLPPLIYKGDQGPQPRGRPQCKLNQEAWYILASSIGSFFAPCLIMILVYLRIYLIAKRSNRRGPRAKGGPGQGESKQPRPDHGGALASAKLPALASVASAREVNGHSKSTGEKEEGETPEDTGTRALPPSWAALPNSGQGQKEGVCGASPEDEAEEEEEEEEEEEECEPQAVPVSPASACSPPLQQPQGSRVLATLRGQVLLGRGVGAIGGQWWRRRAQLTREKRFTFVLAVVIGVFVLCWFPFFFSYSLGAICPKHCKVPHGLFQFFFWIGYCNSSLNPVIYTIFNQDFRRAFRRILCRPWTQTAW
In words: Adrenergic α2B radioligand binding ([3H]Rauwolscine). As to conditions: 1 h; read-out: Percent Inhibition of ligand binding Adrenergic (1 μM ligand conc.) α2B. In short, it runs like this: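 Human α2B receptor expressed in CHO-K1 cells, in 50 mM Tris-HCl pH 7.4, 12.5 mM MgCl2, 1 mM EDTA, 0.2% BSA. Binding of 2.5 nM [3H]Rauwolscine, 60 min at 25° C, filtration; non-specific defined with 10 μM prazosin.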

For experiment [3], the target named is T3, human recombinant serotonin (5-Hydroxytryptamine) 5-HT2A receptor (Homo sapiens, UniProt P28223).
T3 construct: expressed in transfected cells; host or cells: CHO-K1 cells
T3 sequence (P28223 whole entry): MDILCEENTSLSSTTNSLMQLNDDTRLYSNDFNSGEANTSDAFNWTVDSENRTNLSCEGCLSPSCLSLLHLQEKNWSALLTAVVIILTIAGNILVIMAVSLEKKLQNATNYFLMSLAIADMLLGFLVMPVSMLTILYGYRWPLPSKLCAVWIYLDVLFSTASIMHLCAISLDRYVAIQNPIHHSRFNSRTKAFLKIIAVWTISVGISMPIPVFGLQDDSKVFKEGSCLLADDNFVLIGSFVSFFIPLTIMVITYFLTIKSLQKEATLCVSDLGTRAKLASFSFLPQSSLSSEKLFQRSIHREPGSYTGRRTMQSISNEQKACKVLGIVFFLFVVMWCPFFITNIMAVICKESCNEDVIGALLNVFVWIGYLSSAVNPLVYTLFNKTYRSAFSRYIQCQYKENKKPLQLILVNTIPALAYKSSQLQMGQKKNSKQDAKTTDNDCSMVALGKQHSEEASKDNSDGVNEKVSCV
In words: Serotonin 5-HT2A radioligand binding ([3H]Ketanserin). Conditions: 1 h; read-out: Percent Inhibition of ligand binding Serotonin (1 μM ligand concentration) 5-HT2A. In a few lines: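 Membranes from CHO-K1 cells expressing the receptor, in 50 mM Tris-HCl pH 7.4, incubated 60 min at 25° C with 0.5 nM [3H]Ketanserin; 1 μM Mianserin defines non-specific binding. Filtration and counting; values are % inhibition of specific binding at 1 μM or lower, 1% DMSO.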

The target of experiment [4] is T4, human recombinant serotonin (5-Hydroxytryptamine) 5-HT2C receptor (Homo sapiens, UniProt P28335).
T4 construct: expressed in transfected cells; host or cells: CHO-K1 cells
T4 sequence (P28335 33-458): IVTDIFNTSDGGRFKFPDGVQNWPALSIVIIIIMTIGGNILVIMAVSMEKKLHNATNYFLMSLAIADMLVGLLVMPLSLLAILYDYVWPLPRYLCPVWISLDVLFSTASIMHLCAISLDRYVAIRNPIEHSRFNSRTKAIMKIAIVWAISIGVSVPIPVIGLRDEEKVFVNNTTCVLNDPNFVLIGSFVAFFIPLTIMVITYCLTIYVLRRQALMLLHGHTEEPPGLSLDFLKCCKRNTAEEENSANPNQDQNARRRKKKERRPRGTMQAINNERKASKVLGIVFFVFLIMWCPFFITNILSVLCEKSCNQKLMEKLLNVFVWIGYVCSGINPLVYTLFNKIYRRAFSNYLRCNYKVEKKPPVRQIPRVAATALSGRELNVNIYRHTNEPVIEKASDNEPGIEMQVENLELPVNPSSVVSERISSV
As to the kind of experiment: Serotonin 5-HT2C radioligand binding ([3H]Mesulergine). Conditions: for inhibition at 1 µM: 1 h, read-out: Percent Inhibition of ligand binding Serotonin (1 μM ligand concentration) 5-HT2C. The procedure:
Compounds of the invention were incubated with 1 nM [^3H]Mesulergine for 60 minutes at 25° C. Non-specific binding was estimated in the presence of 1 μM Mianserin. Receptor proteins were filtered and washed, the filters were then counted to determine [^3H]Mesulergine specifically bound. […] Biochemical assay results are presented as the percent inhibition of specific binding in Table 5.

The target of experiment [5] is T5, human recombinant serotonin (5-Hydroxytryptamine) 5-HT6 receptor (Homo sapiens, UniProt P50406).
T5 construct: expressed in transfected cells; host or cells: human HeLa cells
T5 sequence (P50406 whole entry): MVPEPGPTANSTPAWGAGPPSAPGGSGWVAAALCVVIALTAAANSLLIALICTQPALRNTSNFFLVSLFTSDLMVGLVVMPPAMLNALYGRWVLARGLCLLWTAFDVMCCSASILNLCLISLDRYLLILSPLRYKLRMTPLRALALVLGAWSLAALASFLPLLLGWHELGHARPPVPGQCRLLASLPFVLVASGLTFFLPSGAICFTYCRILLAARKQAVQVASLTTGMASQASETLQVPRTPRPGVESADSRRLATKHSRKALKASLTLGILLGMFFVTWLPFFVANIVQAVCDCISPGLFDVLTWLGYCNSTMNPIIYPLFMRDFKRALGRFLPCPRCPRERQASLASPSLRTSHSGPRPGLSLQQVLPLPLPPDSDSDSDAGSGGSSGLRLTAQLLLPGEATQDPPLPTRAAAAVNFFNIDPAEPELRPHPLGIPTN
As to the kind of experiment: Serotonin 5-HT6 radioligand binding ([3H]LSD). As to conditions: 2 h; read-out: Percent Inhibition of ligand binding Serotonin (1 μM ligand concentration) 5-HT6. In a few lines: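 Human 5-HT6 receptor expressed in HeLa cells, in Tris-HCl pH 7.4 with 150 mM NaCl, ascorbic acid and BSA. Compounds at 1 μM or lower (1% DMSO) incubated 120 min at 37° C with 1.5 nM [3H]LSD. Non-specific binding defined with serotonin; filter counting gives % inhibition of specific binding.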

T1 sequence (P25021 whole entry): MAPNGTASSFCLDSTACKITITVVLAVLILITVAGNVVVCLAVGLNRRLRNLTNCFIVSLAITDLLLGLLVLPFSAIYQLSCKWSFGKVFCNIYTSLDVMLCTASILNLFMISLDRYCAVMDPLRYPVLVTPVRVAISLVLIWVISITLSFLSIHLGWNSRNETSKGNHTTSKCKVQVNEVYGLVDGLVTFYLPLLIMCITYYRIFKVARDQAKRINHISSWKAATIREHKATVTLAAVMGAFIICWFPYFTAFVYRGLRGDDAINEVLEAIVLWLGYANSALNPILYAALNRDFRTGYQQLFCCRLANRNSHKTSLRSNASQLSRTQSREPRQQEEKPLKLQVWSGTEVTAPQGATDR

Turning to `CN1CCc2c(n(CC(=O)O)c3ccc(Cl)cc23)C1` [Compound 52, 2-(6-chloro-1,2,3,4-tetrahydro-2-methylpyrido[3,4-b]indol-9-yl)acetic acid], the inhibition at 1 µM in experiment [1] was -5%; in experiment [2], 9%; in experiment [3], -11%; in experiment [4] it was -4%; in experiment [5], -4%.
With `CC(C)CCN(C)C(=O)Cn1c2c(c3cc(Cl)ccc31)CCN(C)C2` [Compound 14, 2-(6-chloro-1,2,3,4-tetrahydro-2-methylpyrido[3,4-b]indol-9-yl)-N-isopentyl-N-methylacetamide], the inhibition at 1 µM was 12% in experiment [1]; -16% in experiment [2]; 27% in experiment [3]; 20% in experiment [4]; 12% in experiment [5].
With `Cc1ccc2c(c1)c1c(n2CC(=O)N2CCCCC2)CN(C)CC1` [Compound 57, 2-(2,6-dimethyl-3,4-dihydro-1H-pyrido[3,4-b]indol-9(2H)-yl)-1-(piperidin-1-yl)ethanone], the inhibition at 1 µM is 10% in experiment [1]; 29% in experiment [2]; 28% in experiment [3]; 14% in experiment [4]; 6% in experiment [5].
For `CN1CCc2c(n(CC(C)(O)c3ccc(F)cc3)c3ccc(Cl)cc23)C1` (centres unmarked) [Compound 62, 1-(6-chloro-2-methyl-3,4-dihydro-1H-pyrido[3,4-b]indol-9(2H)-yl)-2-(4-fluorophenyl)propan-2-ol] the same measures were 48%, 102%, 88%, 95% and 77%.
The corresponding values for `CN1CCc2c(n(CC(=O)N3CCNCC3)c3ccc(Cl)cc23)C1` [Compound 55, 2-(6-chloro-2-methyl-3,4-dihydro-1H-pyrido[3,4-b]indol-9(2H)-yl)-1-(piperazin-1-yl)ethanone] are 2%, -21%, 17%, 13% and 0%.
For `CCC1c2c(c3cc(Cl)ccc3n2CC(C)(O)c2ccc(F)cc2)CCN1C` (centres unmarked) [Compound 79] the same measures were 20%, 89%, 62%, 77% and 27%.
Regarding `COC(=O)Cn1c2c(c3cc(C)ccc31)CCN(C)C2` [Compound 21, methyl 2-(1,2,3,4-tetrahydro-2,6-dimethylpyrido[3,4-b]indol-9-yl)acetate], the inhibition at 1 µM in experiment [1] came out at 2%; in experiment [2], 11%; in experiment [3], 4%; in experiment [5] it was 6%. For the same compound, in experiment [4] (1 μM ligand concentration), the “Percent Inhibition of ligand binding Serotonin (1 μM ligand concentration) 5-HT2C” value is 16%.
With `CN1CCc2c(n(CC(=O)NC3CCCCC3)c3ccc(Cl)cc23)C1` [Compound 17, 2-(6-chloro-1,2,3,4-tetrahydro-2-methylpyvrido[3,4-b]indol-9-yl)-N-cyclohexylacetamide], the inhibition at 1 µM is -6% in experiment [1]; 14% in experiment [2]; 17% in experiment [3]; 3% in experiment [4]; 3% in experiment [5].
Take `Cc1ccc2c(c1)c1c(n2CC(O)c2ccccc2F)CN(C)CC1` (centres unmarked) [Compound 60, 2-(2,6-dimethyl-3,4-dihydro-1H-pyrido[3,4-b]indol-9(2H)-yl)-1-(2-fluorophenyl)ethanol]: the inhibition at 1 µM is 15% in experiment [1]; -5% in experiment [2]; 74% in experiment [3]; 5% in experiment [4]; 62% in experiment [5].
For `C/C(=C\n1c2c(c3cc(Cl)ccc31)CCN(C)C2C)c1ccccc1F` (centres unmarked) [Compound 168] the same measures were 64%, 82%, 94%, 96% and 71%.

These data come from patent publication US9260429B2, “Pyrido[3,4-B]indoles and methods of use” (Medivation Technologies, Inc., priority 2008, dated 2016).
